Data taken from patent US8981094B2, “Piperidine/piperazine derivatives” (Janssen Pharmaceutica N.V., priority 2007, dated 2015).

target: T1, human DGAT1 (Homo sapiens, UniProt O75907); assay: Inhibition of DGAT1 activity, FlashPlate assay with DGAT1 membrane preparations and substrate micelles; assay type: biochemical; details: pIC50 = -logIC50, IC50 values expressed in M
T1 construct: FLAG (N); made in house; host or cells: SF9 insect cells (pFastBac baculovirus); total cell membranes
T1 sequence (O75907 1-488): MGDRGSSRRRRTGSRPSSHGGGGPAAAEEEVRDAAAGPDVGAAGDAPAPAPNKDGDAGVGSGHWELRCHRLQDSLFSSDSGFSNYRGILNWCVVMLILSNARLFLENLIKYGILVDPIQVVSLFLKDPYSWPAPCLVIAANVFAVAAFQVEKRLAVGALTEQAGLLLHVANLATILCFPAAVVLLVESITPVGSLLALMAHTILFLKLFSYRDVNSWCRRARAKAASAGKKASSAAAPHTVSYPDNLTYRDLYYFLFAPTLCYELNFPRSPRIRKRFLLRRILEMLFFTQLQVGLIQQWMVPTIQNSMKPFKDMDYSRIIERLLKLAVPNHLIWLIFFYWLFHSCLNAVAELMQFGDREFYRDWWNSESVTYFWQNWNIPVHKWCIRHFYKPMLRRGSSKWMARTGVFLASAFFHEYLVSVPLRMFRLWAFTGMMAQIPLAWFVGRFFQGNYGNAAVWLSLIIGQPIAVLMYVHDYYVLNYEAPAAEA
Description: A) Measurement of Inhibition of DGAT1 Activity by the Present Compounds
The inhibiting activity of the present compounds on DGAT1 activity was screened in a single well procedure assay using DGAT1 comprising membrane preparations and DGAT1 substrate comprising micelles and determining formed radio-active triacylglycerol coming in close proximity of a flashplate surface by radio luminescence.
Said assay is described in full detail in WO2006/067071, the content of which is incorporated herein by reference.
By DGAT1 activity is meant the transfer of coenzyme A activated fatty acids to the 3-position of 1,2-diacylglycerols, thus forming a triglyceride molecule, by enzyme DGAT1.
human DGAT1 (NM012079.2) was cloned into the pFastBac vector, containing translation start, a FLAG-tag at the N-terminus as described in literature and a viral Kozak sequence (AAX) preceding the ATG to improve expression in insect cells. Expression was done as described in literature (Cases, S., Smith, S. J., Zheng, Y., Myers H. M., Lear, S. R., Sande, E., Novak, S., Collins, C., Welch, C. B., Lusis, A. J., Erickson, S. K. and Farese, R. V. (1998) Proc. Natl. Acad. Sci. USA 95, 13018-13023.) using SF9 cells.
72 h transfected SF9 cells were collected by centrifugation (13000 rpm-15 min-4° C.) and lysed in 2×500 ml lysisbuffer (0.1M Sucrose, 50 mM KCl, 40 mM KH2PO4, 30 mM EDTA pH 7.2. Cells were homogenized by cell disruptor. After centrifugation 1380 rpm-15 min-4° C. (SN discarded), pellet was resuspended in 500 ml lysisbuffer and total cell membranes collected by ultracentrifugation at 34000 rpm(100 000 g) for 60 min (4° C.). The collected membranes were resuspended in lysis buffer, divided in aliquots and stored with 10% glycerol at −80° C. until use.
Add 1 ml dioleoyl-sn-glycerol (10 mg/ml) to 10 ml of L-α-phosphatidylcholine (1 mg/ml) and 10 ml of L-α-phosphatidyl-L-serine (1 mg/ml) in a thick glass recipient. Evaporate under nitrogen and put on ice for 15 minutes. Reconstitute in 10 ml Tris/HCl (10 mM, pH 7.4) by sonication on ice. The sonification process consists of sonification cycles of 10 seconds in the sonification bath followed by 10 seconds cool down on ice and repeating this sonification cycle till a homogeneous solution is obtained (takes about 15 minutes). The thus obtained micelles are stored at −20° C. till later use and contain DAG at a final concentration of 1.61 mM.
c) Substrate mix (for 1 384 well plate=3840 μl) • 612 μl micelles stock (51 μM final) • 16.6 μl oleoylCoA 9.7 mM • 23 μl [^3H]-oleoylCoA (49 Ci/mmol, 500 μCi/ml) • 3188.4 μl Tris pH 7.4, 10 mM
d) Enzyme mix (for 1 384 well plate=3520 μl) (5 μg/ml) • Add 11.73 μl of DGAT membrane stock (1500 μg/ml stock) to 3508 μl assay buffer.
e) Stop mix (for 1 384 well plate=7.68 ml) (250 mM) • Add 384 μl of N-ethylmaleimide (5M) to 3.456 ml DMSO 100%, and further dilute 3.84 ml of said solution with 3.84 ml DMSO 10%.
DGAT activity in membrane preparations was assayed in 50 mM Tris-HCl (pH 7.4), 150 mM MgCl2, 1 mM EDTA and 0.2% BSA, containing 50 μM DAG, 32 μg/ml PC/PS and 8.4 μM [^3H]-oleoylCoA (at a specific activity of 30 nCi/well) in a final volume of 50 μl in 384-well format using the red shifted Basic Image FlashPlate™ (Perkin Elmer Cat.No. SMP400).
In detail, 10 μl enzyme mix and 10 μl substrate mix were added to 30 μl of assay buffer, optionally in the presence of 1 μl DMSO (blank and controls) or 1 μl of the compound to be tested. This reaction mixture was incubated for 120 minutes at 37° C. and the enzymatic reaction stopped by adding 20 μl of the stop mix. The plates were sealed and the vesicles allowed to settle overnight at room temperature. Plates were centrifuged for 5 minutes at 1500 rpm and measured in Leadseeker. […]

| Compound | IC50 |
| --- | --- |
| CC(C)C(CC(=O)Nc1ccc(C2CCN(C(=O)Nc3c(Cl)cccc3Cl)CC2)cc1)NC(=O)OC(C)(C)C (stereo not drawn) [Compound 215] | 0.0589 µM |
| O=C(CCCc1ccccc1)Nc1ccc(N2CCN(C(=O)Nc3ccccc3C(F)(F)F)CC2)cc1 [Compound 70] | 0.138 µM |
| O=C(CN1CCN(c2cccc(C(F)(F)F)c2)CC1)Nc1ccc(C2CCN(C(=O)Nc3c(Cl)cccc3Cl)CC2)cc1 [Compound 103] | 0.398 µM |
| CCCCC(=O)Nc1ccc(C2CCN(C(=O)Nc3c(Cl)cccc3Cl)CC2)cc1 [Compound 130] | 0.038 µM |
| C=CCC(N)C(=O)Nc1ccc(C2CCN(C(=O)Nc3c(Cl)cccc3Cl)CC2)cc1 (stereo not drawn) [Compound 146] | 10.5 µM |
| COCCNC(=O)c1cc(Cl)c(NC(=O)N2CCN(c3ccc(NC(=O)CCCc4ccccc4)cc3)CC2)c(Cl)c1 [Compound 306] | 0.0263 µM |
| O=C(NCc1ccccc1F)c1ccc(N2CCN(C(=O)Cc3c(Cl)cccc3Cl)CC2)cc1 [Compound 249] | 0.162 µM |
| O=C(CCCc1ccccc1)Nc1ccc(N2CCN(C(=O)C(O)c3c(F)cccc3F)CC2)cc1 (stereo not drawn) [Compound 330] | 0.2 µM |
| CC(O)c1cc(Cl)c(NC(=O)N2CCN(c3ccc(NC(=O)CCCc4ccccc4)cc3)CC2)c(Cl)c1 (single isomer, unassigned) [Compound 271] | 0.00324 µM |
| O=C(CN1CCC(F)(F)CC1)Nc1ccc(C2CCN(C(=O)Nc3c(Cl)cccc3Cl)CC2)cc1 [Compound 107] | 0.182 µM |
| COc1cc(Cl)c(NC(=O)N2CCN(c3ccc(NC(=O)CCCc4ccccc4)cc3)CC2)c(Cl)c1 [Compound 190] | 0.00617 µM |
| O=C(CCCc1ccccc1)Nc1ccc(N2CCN(C(=O)Nc3c(Cl)cc(C(=O)N4CCOCC4)cc3Cl)CC2)cc1 [Compound 294] | 0.0123 µM |
| COc1ccc(CC(=O)Nc2ccc(N3CCN(C(=O)Nc4c(Cl)cc(OC)cc4OC)CC3)cc2)cc1 [Compound 191] | 0.0447 µM |
| COC(=O)c1cccc(NC(=O)N2CCN(c3ccc(NC(=O)CCCc4ccccc4)cc3)CC2)c1C [Compound 72] | 0.49 µM |
| COc1ccc(CC(=O)Nc2ccc(N3CCN(C(=O)Cc4c(Cl)cc(CN5CCCC5)cc4Cl)CC3)cc2)cc1 [Compound 351] | 0.245 µM |
| O=C(NCc1cc(F)cc(F)c1)c1ccc(N2CCN(C(=O)Cc3c(Cl)cccc3Cl)CC2)cc1 [Compound 252] | 0.234 µM |
| O=C(CN1CCCCC1)Nc1ccc(C2CCN(C(=O)Nc3c(Cl)cccc3Cl)CC2)cc1 [Compound 112] | 0.794 µM |
| CC(N)C(=O)Nc1ccc(C2CCN(C(=O)Nc3c(Cl)cccc3Cl)CC2)cc1 (stereo not drawn) [Compound 148] | 7.08 µM |
| O=C(CCCc1ccccc1)Nc1ccc(N2CCN(C(=O)Nc3c(Cl)cccc3Cl)CC2)c(CO)c1 [Compound 326] | 0.126 µM |
| CC(NCCCO)c1cc(Cl)c(NC(=O)N2CCN(c3ccc(NC(=O)CCCc4ccccc4)cc3)CC2)c(Cl)c1 (stereo not drawn) [Compound 57] | 0.0107 µM |
| O=C(CC(c1ccc(Cl)cc1)c1ccc(Cl)cc1)c1ccc(N2CCN(C(=O)Nc3c(Cl)cccc3Cl)CC2)cc1 [Compound 162] | 0.112 µM |
| COc1cc(C(O)C(=O)N2CCN(c3ccc(NC(=O)CCCc4ccccc4)cc3)CC2)ccc1O (stereo not drawn) [Compound 348] | 5.25 µM |
| COc1ccc(CC(=O)Nc2ccc(N3CCN(C(=O)Oc4c(Cl)cccc4Cl)CC3)cc2)cc1 [Compound 308] | 0.0316 µM |

| Compound | IC50 |
| --- | --- |
| COCCNC(C)c1cc(Cl)c(NC(=O)N2CCN(c3ccc(NC(=O)CCCc4ccccc4)cc3)CC2)c(Cl)c1 (stereo not drawn) [Compound 274] | 0.00398 µM |
| CN(CC(=O)Nc1ccc(N2CCN(C(=O)Nc3c(Cl)cccc3Cl)CC2)cc1)C(=O)CC(C)(C)C [Compound 167] | 0.0224 µM |
| Cc1cccc(NCC(=O)Nc2ccc(C3CCN(C(=O)Nc4c(Cl)cccc4Cl)CC3)cc2)c1 [Compound 97] | 0.049 µM |
| COc1ccc(CC(=O)Nc2ccc(N3CCN(C(=O)Nc4c(Cl)cc(OC)cc4Cl)CC3)cc2)cc1 [Compound 15] | 0.00457 µM |
| O=C(CCN1CCCCC1)Nc1ccc(C2CCN(C(=O)Nc3c(Cl)cccc3Cl)CC2)cc1 [Compound 128] | 2.09 µM |
| CC(C)(C)OC(=O)CC(=O)Nc1ccc(N2CCN(C(=O)Nc3c(Cl)cccc3Cl)CC2)cc1 [Compound 282] | 0.00776 µM |
| CCC(NC(=O)OC(C)(C)C)C(=O)Nc1ccc(C2CCN(C(=O)Nc3c(Cl)cccc3Cl)CC2)cc1 (stereo not drawn) [Compound 205] | 0.398 µM |
| O=C(CCN(Cc1ccccc1Cl)S(=O)(=O)c1ccccc1[N+](=O)[O-])Nc1ccc(N2CCN(C(=O)Nc3c(Cl)cccc3Cl)CC2)cc1 [Compound 6] | 0.0468 µM |
| CC(NC(=O)OC(C)(C)C)C(=O)Nc1ccc(C2CCN(C(=O)Nc3c(Cl)cccc3Cl)CC2)cc1 (stereo not drawn) [Compound 206] | 0.269 µM |
| O=C(CNCc1ccc(F)cc1)Nc1ccc(C2CCN(C(=O)Nc3c(Cl)cccc3Cl)CC2)cc1 [Compound 118] | 0.347 µM |
| CN(C)CC(=O)Nc1ccc(C2CCN(C(=O)Nc3c(Cl)cccc3Cl)CC2)cc1 [Compound 109] | 2.34 µM |
| O=C(CCCc1ccccc1)Nc1ccc(N2CCN(C(=O)C(O)c3c(Cl)cccc3Cl)CC2)cc1 (stereo not drawn) [Compound 315] | 0.0589 µM |
| COCCN(C)C(=O)c1cc(Cl)c(NC(=O)N2CCN(c3ccc(NC(=O)CCCc4ccccc4)cc3)CC2)c(Cl)c1 [Compound 291] | 0.0105 µM |
| COc1ccc(CC(=O)Nc2ccc(N3CCN(C(=O)C(O)c4ccc(CN5CCCC5)cc4Cl)CC3)cc2)cc1 (stereo not drawn) [Compound 352] | 0.339 µM |
| CC(N)c1cc(Cl)c(NC(=O)N2CCN(c3ccc(NC(=O)CCCc4ccccc4)cc3)CC2)c(Cl)c1 (stereo not drawn) [Compound 55] | 0.0102 µM |
| CC(C)C(NC(=O)OC(C)(C)C)C(=O)Nc1ccc(C2CCN(C(=O)Nc3c(Cl)cccc3Cl)CC2)cc1 (stereo not drawn) [Compound 208] | 0.191 µM |
| COc1ccc(CC(=O)Nc2ccc(C3CCN(C(=O)Nc4c(Cl)cccc4Cl)CC3)cc2)cc1 [Compound 134] | 0.0155 µM |
| CC(C)(C)OC(=O)NC(CO)C(=O)Nc1ccc(C2CCN(C(=O)Nc3c(Cl)cccc3Cl)CC2)cc1 (stereo not drawn) [Compound 204] | 1.91 µM |
| O=C(CCCc1ccccc1)Nc1ccc(N2CCN(C(=O)C(O)c3ccccc3Br)CC2)cc1 (stereo not drawn) [Compound 295] | 0.0138 µM |
| O=C(CCCc1ccccc1)Nc1ccc(N2CCN(C(=O)C(O)c3ccc(F)cc3F)CC2)cc1 (stereo not drawn) [Compound 325] | 0.115 µM |
| CCC(C)C(NC(=O)OC(C)(C)C)C(=O)Nc1ccc(C2CCN(C(=O)Nc3c(Cl)cccc3Cl)CC2)cc1 (stereo not drawn) [Compound 213] | 0.107 µM |
| CCCNCC(=O)Nc1ccc(C2CCN(C(=O)Nc3c(Cl)cccc3Cl)CC2)cc1 [Compound 122] | 0.562 µM |
